US20130317056A1, “NEURONAL NICOTINIC AGONISTS AND METHODS OF CORRELATING COMT SNPS” (ABBVIE INC., priority 2012, published 2013)

Assays:
[1] = test system: clinically stable subjects with schizophrenia; assay: Disposition of subjects and tolerability, Clinical Study A; assay type: in vivo, human
From the text: A Phase 2a proof-of-concept (POC) study in clinically stable subjects with schizophrenia who were clinically stable and received stable doses of atypical antipsychotic therapy. The study was a Phase 2, multi-center, randomized, double-blind, placebo-controlled, parallel group study designed to evaluate the safety and efficacy of doses of (4s)-4-(5-phenyl-1,3,4-thiadiazol-2-yloxy)-1-azatricyclo[3.3.1.1^3,7]decane (Compound A) in clinically stable male and female subjects (ages 20 to 55, inclusive) with a Diagnostic and Statistical Manual of Mental Disorders—Fourth Edition, Text Revision (DSM-IV-TR) diagnosis of schizophrenia. Psychiatric diagnoses were confirmed using the Mini-International Neuropsychiatric Interview (MINI) version 6.0.0. The criteria for clinical stability was determined by a combination of retrospective data (over the 4 months prior to the start of Screening, which will be supported by clinical records, patient, identified responsible contact person, and physician interviews), and prospective data assessed during the Prospective Stabilization Period of 28 to 42 days duration.
The study consisted of a screening period of at least 28 and up to 42 days, a 84-day outpatient treatment period, a 14-day post-treatment period, and a post-treatment follow-up period. The screening period consisted of three visits: Screening Visit 1, Screening Visit 2, and Day −1. Upon completion of Day −1 procedures, eligible subjects were randomized through an Interactive Voice Response/Interactive Web-Based (IVR/IWB) system. Subjects were randomized in an equal ratio to one of three treatment groups (placebo, 10 mg Compound A, or 25 mg Compound A).
Subjects completed 2 visits during the screening period. Study site personnel contacted each subject by telephone on Day 21, 35, and 70 of the 84-day treatment period to discuss study drug compliance, antipsychotic medication compliance, concomitant medication use, substance use, and any adverse events.
A total of 207 subjects were randomized.

[2] = test system: subjects with schizophrenia who were current smokers; assay: MCCB composite score in current smokers by COMT allele type, Clinical Study A; assay type: in vivo, human; conditions: for MCCB Change from Baseline to Final Mean(SD) / MCCB Between-group Difference (Pooled SD) / MCCB Effect Size (Raw mean): current smokers
Protocol: Analysis of the data by cigarette smoking status (current smoker or current nonsmoker) indicated a significant […] interaction (p=0.015).
A blood sample for genotyping was collected from each subject who consented. Genomic DNA was isolated from whole blood using the FlexiGene DNA AGF3000 kit (Qiagen, Valencia, Calif.), on an AutogenFlex 3000 (AutoGen, Holliston, Mass.). Genotypes were determined using the Pyrosequencing detection method (USA—Qiagen, Inc., Valencia, Calif.). Individuals performing the genotyping were blinded to clinical trial data. The significance of the minor allele against the major allele is shown in column marked “Treatment genotype p-value” (Tables 6 and 7).
The SNPs analyzed were RS6269, RS4633, RS4680, and RS4818. The treatment effects across all 4 SNPs in the minor allele indicated a dose-response relationship. The magnitude of the effect for the Compound A 25 mg treatment group was as low as +1.8 points on the MCCB composite score for SNP4680 (corresponding to a Coen's d effect size of 0.43) to as high as +3.7 points for SNP RS4818 (corresponding to a Coen's d effect size of 0.93). […] In fact, the treatment response for both Compound A active treatment groups was generally less than that of placebo for subjects containing the major COMT allele.

[3] = RS4633 T/T or C/T (minor allele), 25 mg vs placebo
[4] = RS4818 G/C or G/G (minor allele), 10 mg vs placebo
[5] = RS6269 G/G or A/G (minor allele), 10 mg vs placebo
[6] = RS6269 G/G or A/G (minor allele), 25 mg vs placebo

**Q.** What does the source list for `c1ccc(-c2nnc(O[C@@H]3C4CC5C[C@H]3C[N@](C5)C4)s2)cc1` [Compound A, (4s)-4-(5-phenyl-1,3,4-thiadiazol-2-yloxy)-1-azatricyclo[3.3.1.1^3,7]decane]?
**A.** Discontinuation: Adverse event ([1]; 10 mg QD): 4 (5.8) n (%); Discontinuation: Adverse event ([1]; 25 mg QD): 3 (4.5) n (%); Discontinuation: Adverse event ([1]; Compound A overall): 7 (5.1) n (%); tolerability ([1]; subjects with schizophrenia, doses up to 25 mg QD, including 10 mg QD and 25 mg QD): well tolerated; treatment effect on MCCB composite score ([2]; current smokers who contained the major allele for the 4 COMT SNPs): No treatment effect; MCCB Change from Baseline to Final Mean(SD) ([2]; RS4633 C/C (major allele), 25 mg): 0.4(3.9); MCCB Between-group Difference (Pooled SD) ([2]; RS4633 C/C (major allele), 25 mg vs placebo): −1.1(5.0); MCCB Change from Baseline to Final Mean(SD) ([2]; RS4633 T/T or C/T (minor allele), 10 mg): −0.3(4.4); MCCB Between-group Difference (Pooled SD) ([2]; RS4633 T/T or C/T (minor allele), 10 mg vs placebo): −1.2(4.2); MCCB Change from Baseline to Final Mean(SD) ([2]; RS4633 T/T or C/T (minor allele), 25 mg): 2.9(4.8); MCCB Between-group Difference (Pooled SD) [2, 3]: 2.0(4.5); MCCB Effect Size (Raw mean) [2, 3]: 0.44; MCCB Change from Baseline to Final Mean(SD) ([2]; RS4680 A/A or G/A (minor allele), 10 mg): 0.1(4.6); MCCB Between-group Difference (Pooled SD) ([2]; RS4680 A/A or G/A (minor allele), 10 mg vs placebo): −1.0(4.1); MCCB Change from Baseline to Final Mean(SD) ([2]; RS4680 A/A or G/A (minor allele), 25 mg): 2.9(4.8); MCCB Effect Size (Raw mean) ([2]; RS4680 A/A or G/A (minor allele), 25 mg vs placebo): 0.43; MCCB Change from Baseline to Final Mean(SD) ([2]; RS4680 G/G (major allele), 25 mg): 0.4(3.9); MCCB Between-group Difference (Pooled SD) ([2]; RS4680 G/G (major allele), 25 mg vs placebo): −0.9(5.3); MCCB Change from Baseline to Final Mean(SD) ([2]; RS4818 C/C (major allele), 25 mg): 1.2(4.6); MCCB Between-group Difference (Pooled SD) ([2]; RS4818 C/C (major allele), 25 mg vs placebo): −1.0(4.9); MCCB Change from Baseline to Final Mean(SD) ([2]; RS4818 G/C or G/G (minor allele), 10 mg): 1.7(3.7); MCCB Between-group Difference (Pooled SD) [2, 4]: 2.1(3.6); MCCB Effect Size (Raw mean) [2, 4]: 0.58; MCCB Change from Baseline to Final Mean(SD) ([2]; RS4818 G/C or G/G (minor allele), 25 mg): 3.4(4.4); MCCB Effect Size (Raw mean) ([2]; RS4818 G/C or G/G (minor allele), 25 mg vs placebo): 0.93; MCCB Change from Baseline to Final Mean(SD) ([2]; RS6269 A/A (major allele), 25 mg): 0.8(4.6); MCCB Between-group Difference (Pooled SD) ([2]; RS6269 A/A (major allele), 25 mg vs placebo): −1.0(3.9); MCCB Change from Baseline to Final Mean(SD) ([2]; RS6269 G/G or A/G (minor allele), 10 mg): 2.9(4.2); MCCB Between-group Difference (Pooled SD) [2, 5]: 1.8(5.0); MCCB Effect Size (Raw mean) [2, 5]: 0.36; MCCB Change from Baseline to Final Mean(SD) ([2]; RS6269 G/G or A/G (minor allele), 25 mg): 3.1(4.4); MCCB Between-group Difference (Pooled SD) [2, 6]: 2.0(5.1); MCCB Effect Size (Raw mean) [2, 6]: 0.40
